# In US9844535B2, “SHP2 inhibitors and methods of treating autoimmune and/or glomerulonephritis-associated diseases using SHP2 inhibitors” (Indiana University Research and Technology Corporation, priority 2013, dated 2017):
# “Also recorded” adds a separate entry of the source.
# What was measured:
# [1] = test system: T cells isolated from the spleen of SLE-prone mice; test: Proliferation and viability of cultured mouse T cells; assay type: cell-based
# Description: Whole tissue cell cultures prepared from mouse spleen and axillary lymph nodes were generated as described above. From within this total cell preparation, total T cells from spleen and the double negative T cells from axillary lymph nodes were further purified through negative selection using a pan T cell isolation kit from Milenyi Biotec (San Diego, Calif.). […] Next, 20 μl of anti-biotin beads were added per 1×10^7 cells and the reaction was kept on ice for another 30 minutes. After centrifuging at 2000 rpm for 5 minutes at 4° C., the pellet was resuspended in 2 ml of T cell isolation buffer (D-PBS, pH7.2, 0.5% FBS and 2 mM EDTA) and the T cells were purified through a magnetic sorting column (MACS).
# The purity of isolated T cells routinely exceeded 94%. After purification, T cells were resuspended in RPMI1640 medium with 10% FBS and 1×10^5 cells/well in 100 ul total volume was loaded onto a 96-well plate, either left uncoated or precoated with anti-CD3 antibody (1 ug/ml) (OKT3; Biolegend). All cells loaded onto wells precoated with anti-CD3 antibody were also mixed with anti-CD28 antibody (0.5 μg/ml) (CD28.2; BioLegend) to help potentiate the T cell signaling response. Plated cells were cultured for 48 hours in either the presence of vehicle (DMSO) or Shp2 inhibitor (10 μg/ml). Following the incubation, 15 μl of medium was collected for various cytokine activity analyses.
# For cell viability, an MTT (thiazolyl Blue tetrazolium Bromide, M2128, Sigma, St. Louis, Mo.) assay was employed. Briefly, 10 μl of the MTT labeling reagent (final concentration 0.5 mg/ml) was loaded into each cell culture well (96-well plate) and then incubated for 4 hours in a humidified chamber. Following incubation, 100 μl of solubilization solution (0.04N in absolute isopropanol) was added to each well, resuspended, and then incubated at 37° C. for an additional hour. Spectrophotometric absorbance of the samples was assessed using a microplate reader at a wavelength of 595 nm. T cell numbers/proliferation was assessed by cell count using a hemocytometer. In brief, 1×10^5 cells were plated in wells and cultured for 48 hours. 10 μl of cell suspension was then removed and mixed together with 10 μl of trypan blue solution (0.4%, T8154, Sigma). After mixing, 10 μl of the mixture was loaded onto the hemocytometer and the total average number of cells/well was calculated.
# Moreover, the proliferative effects observed were specific to the double-negative T cell population (FIG. 20A).
# [2] = test system: serum IgG and anti dsDNA IgG; test: Serum IgG and anti-dsDNA IgG ELISA; assay type: in vivo, mouse; settings: SLE mice serum
# Source text: ELISA assays were used to detect for the presence of various cytokines in mouse serum isolated from vehicle or drug-treated animals or from medium supernatant isolated from tissue cell cultures as described above. In addition, ELISA was also used to detect total IgG and dsDNA IgG from mouse serum and for the assay to detect urine albumin and creatinine levels. ELISA detection kits for mouse cytokines IL-6 and TNFα were purchased from eBioscience, mouse cytokines IL-17A, IFNγ, and human IFNγ were purchased from Biolegend, kits for the albumin and creatinine were purchased from Exocell, and kits for the serum IgG and anti-dsDNA IgG were purchased from Alpha Diagnostic (San Antonio, Tex.). ELISAs were all performed according to the manufacturer's instructions.
# Serum IgG and anti-dsDNA IgG: 100 μl of 1:50000× diluted serum for IgG and 100 μl of 1:20000× diluted serum for dsDNA IgG were used and loaded onto a precoated 96-well plate in duplicate for 1 hour at room temperature. […] The OD of the wells was determined using a microplate reader set at a wavelength of 450 nm.
# In this Example, the effect of the SHP2 inhibitor, L97M74, on the onset of SLE disease progression was evaluated by measuring the levels of auto antibodies in SLE inhibitor-treated versus vehicle-treated mice through detection anti-histone antibodies and anti-IgG by ELISA.
# ERK and AKT signaling = test: Immunoblot of ERK/AKT signaling in tissue lysates of inhibitor-treated MRL/lpr mice; assay type: in vivo, mouse; settings: 7.5 mg/kg daily for 4 weeks
# Description: Briefly, female MRL/MpJ-fas lpr (MRL/lpr), MRL/Mpj and C57BL/6J mice were purchased from the Jackson Laboratory (Bar Harbor, Me.). For experiments, mice within each group were ip injected with either vehicle (DMSO) or the SHP2 inhibitor (7.5 mg/kg/per day). […] Body weight was measured daily and treatment dosage was adjusted accordingly. At the end of the treatment period, mice were sacrificed with CO2 exsanguination and SLE targeted organs were removed. For each mouse, spleen, kidney, and heart weight were calculated. In addition, total animal body weight and tibia length were measured. Peripheral blood/serum was also collected for use in the cytokine assays described below.
# Tissues (spleen, kidney, heart) isolated from either vehicle (DMSO) treated or SHP2 inhibitor treated WT C57/B16, MRL/MpJ, or MRL/lpr female mice were dissected, perfused in PBS, and immediately frozen in liquid N2. Whole-cell lysates were prepared by homogenizing the tissue in radioimmunoprecipitation (RIPA) buffer (25 mmol/l Tris-HCl [pH 7.4], 150 mmol/l NaCl, 0.1% SDS, 1% NP-40, 0.5% sodium deoxycholate, 5 mmol/l EDTA, 1 mmol/l NaF, 1 mmol/l sodium orthovanadate, and a protease cocktail) at 4° C., followed by clarification at 14,000 g. […] Bands were visualized with enhanced chemiluminescence and quantified by densitometry (developed by Wayne Rasband; ImageJ 1.41 software, http://rsbweb.nih.gov/ij/). […]
smiles,measurement,setting,value
Cn1c(-c2cccc(NC(=O)C(=O)Nc3ccc(-c4ccsc4)cc3)c2)c(I)c2cc(C(=O)O)c(O)cc21 [11a-1],total number / proliferation of double-negative T cells,"[1]; MRL/lpr, CD3 activation, 48 hours culture, listed as SHP2 inhibitor",decreased the total number of double-negative T cells; also recorded: decreases proliferation
same,viability of tissue-cultured double-negative T cells,"[1]; MTT, absence or presence of CD3 ab, listed as SHP2 inhibitor",did not affect viability; also recorded: does not affect viability
same,total T cell viability,"[1]; MTT, absence or presence of CD3 antibody",no effect on total T cell viability
same,inactive and CD3 activated T cell proliferation,"[1]; SLE mouse splenic T cells, 48 hours culture",significantly inhibited
same,effects in WT or MRL/MpJ control cells,[1]; presence or absence of stimulation,No effects were observed
same,levels of IgG,[2],not reduced
same,levels of double-stranded DNA (anti dsDNA IgG),[2],not reduced
same,downstream ERK and AKT signaling in tissue lysates,ERK and AKT signaling,reversed aberrant downstream ERK and AKT signaling
